Active and inactive are the calls of the source. No cut-off for these calls is given here.
How the values were obtained:
786-0 [1] = assay: Anti-tumor activity against human 786-0 cells xenografted in mouse model assessed as tumor growth inhibition at 30 mg/kg, po once daily for 15 days; format: functional, organism-based; conditions: time 15.0 day
[2] = AUC (0 to 24 hrs) in human (healthy individuals) at 30 mg, single oral dose; format: ADME; conditions: in vivo
[3] = Selectivity ratio, ratio of Ki for TYRO3 (unknown origin) to Ki for AXL (unknown origin)
CYP2D6 = CYP2D6 (Homo sapiens, UniProt P10635); assay: Time dependent inhibition of CYP2D6 (unknown origin) at 30 uM measured after 30 mins relative to control; format: ADME; conditions: read-out: TDI
CYP2C8 = target: T1, CYP2C8 (Homo sapiens, UniProt P10632); assay: Time dependent inhibition of CYP2C8 (unknown origin) at 30 uM measured after 30 mins relative to control; format: ADME; conditions: read-out: TDI
T1 sequence (P10632 whole entry): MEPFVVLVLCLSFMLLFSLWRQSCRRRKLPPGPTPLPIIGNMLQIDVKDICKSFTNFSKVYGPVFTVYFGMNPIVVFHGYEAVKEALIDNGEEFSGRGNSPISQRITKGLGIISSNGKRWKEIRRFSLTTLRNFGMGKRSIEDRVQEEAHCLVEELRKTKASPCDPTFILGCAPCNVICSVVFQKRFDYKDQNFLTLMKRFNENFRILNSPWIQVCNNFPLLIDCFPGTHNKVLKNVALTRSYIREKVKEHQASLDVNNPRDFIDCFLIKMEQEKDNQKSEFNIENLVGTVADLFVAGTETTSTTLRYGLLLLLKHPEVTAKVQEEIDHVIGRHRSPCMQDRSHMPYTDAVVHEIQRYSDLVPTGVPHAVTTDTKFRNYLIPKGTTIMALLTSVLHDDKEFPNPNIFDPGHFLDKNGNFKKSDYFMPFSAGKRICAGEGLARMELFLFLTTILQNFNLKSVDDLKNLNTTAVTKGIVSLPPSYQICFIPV

[4] = Half life in human (healthy individuals) at 30 mg, single oral dose; format: ADME; conditions: in vivo
[5] = AUC (0 to 24 hrs) in human (healthy individuals) at 270 mg, single oral dose; format: ADME; conditions: in vivo
Cytochrome P450 2D6 = Cytochrome P450 2D6 (Homo sapiens, UniProt P10635); assay: Inhibition of CYP2D6 (unknown origin) measured after 30 mins; format: ADME
[6] = Cmax in human (healthy individuals) at 270 mg, single oral dose measured uo to 120 hrs; format: ADME; conditions: in vivo
[7] = Half life in human (healthy individuals) at 10 mg, single oral dose; format: ADME; conditions: in vivo
[8] = Clearance in Beagle dog at 0.5 mg/kg, iv measured up to 24 hrs by LC-MS/MS analysis; format: ADME, organism-based, Canis lupus familiaris; conditions: in vivo
[9] = AUC (0 to 120 hrs) in human (healthy individuals) at 10 mg, single oral dose; format: ADME; conditions: in vivo
CYP2B6 = target: T2, CYP2B6 (Homo sapiens, UniProt P20813); assay: Time dependent inhibition of CYP2B6 (unknown origin) at 30 uM measured after 30 mins relative to control; format: ADME; conditions: read-out: TDI
T2 sequence (P20813 whole entry): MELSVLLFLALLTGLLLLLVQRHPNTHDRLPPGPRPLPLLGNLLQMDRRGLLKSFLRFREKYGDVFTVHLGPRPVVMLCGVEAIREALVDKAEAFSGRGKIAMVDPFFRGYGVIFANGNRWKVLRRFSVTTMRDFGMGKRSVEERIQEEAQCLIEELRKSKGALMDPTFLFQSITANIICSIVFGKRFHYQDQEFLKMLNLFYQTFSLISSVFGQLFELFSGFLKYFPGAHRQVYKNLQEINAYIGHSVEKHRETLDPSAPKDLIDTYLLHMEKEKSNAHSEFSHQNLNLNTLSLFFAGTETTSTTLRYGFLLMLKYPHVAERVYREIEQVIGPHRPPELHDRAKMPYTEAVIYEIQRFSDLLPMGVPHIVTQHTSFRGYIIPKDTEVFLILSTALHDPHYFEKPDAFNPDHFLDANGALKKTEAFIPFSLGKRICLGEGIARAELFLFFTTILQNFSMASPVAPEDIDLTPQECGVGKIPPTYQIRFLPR

[10] = AUC (0 to 120 hrs) in human (healthy individuals) at 90 mg, single oral dose; format: ADME; conditions: in vivo
[11] = Apparent permeability of compound from apical to basolateral side in human Caco-2 cells; format: ADME, cell-based; conditions: read-out: permeability
[12] = Half life in human (healthy individuals) at 90 mg, single oral dose; format: ADME; conditions: in vivo
Cytochrome P450 3A4 [13] = target: T3, Cytochrome P450 3A4 (Homo sapiens, UniProt P08684); assay: Inhibition of CYP3A4 (unknown origin) using midazolam as substrate measured after 30 mins; format: ADME
hERG (KCNH2) = hERG (KCNH2) (Homo sapiens, UniProt Q12809); assay: Inhibition of hERG at 10 uM by high throughput cell based patch clamp assay; format: toxicity
[14] = Half life in human (healthy individuals) at 270 mg, single oral dose; format: ADME; conditions: in vivo
[15] = AUC (0 to 120 hrs) in human (healthy individuals) at 30 mg, single oral dose; format: ADME; conditions: in vivo
Cytochrome P450 2C19 = Cytochrome P450 2C19 (Homo sapiens, UniProt P33261); assay: Inhibition of CYP2C19 (unknown origin) measured after 30 mins; format: ADME
[16] = AUC (0 to 24 hrs) in human (healthy individuals) at 90 mg, single oral dose; format: ADME; conditions: in vivo
786-0 [17] = assay: Anti-tumor activity against human 786-0 cells xenografted in mouse model assessed as tumor growth inhibition in presence of sunitinib at 30 mg/kg, po once daily for 15 days; format: functional, organism-based; conditions: time 15.0 day
Cytochrome P450 3A4 [18] = target: T3, Cytochrome P450 3A4; assay: Inhibition of CYP3A4 (unknown origin) using testosterone as substrate measured after 30 mins; format: ADME
[19] = Clearance in CD-1 mouse at 0.5 mg/kg, iv measured up to 24 hrs by LC-MS/MS analysis; format: ADME, organism-based; conditions: in vivo

T3 sequence (P08684 whole entry): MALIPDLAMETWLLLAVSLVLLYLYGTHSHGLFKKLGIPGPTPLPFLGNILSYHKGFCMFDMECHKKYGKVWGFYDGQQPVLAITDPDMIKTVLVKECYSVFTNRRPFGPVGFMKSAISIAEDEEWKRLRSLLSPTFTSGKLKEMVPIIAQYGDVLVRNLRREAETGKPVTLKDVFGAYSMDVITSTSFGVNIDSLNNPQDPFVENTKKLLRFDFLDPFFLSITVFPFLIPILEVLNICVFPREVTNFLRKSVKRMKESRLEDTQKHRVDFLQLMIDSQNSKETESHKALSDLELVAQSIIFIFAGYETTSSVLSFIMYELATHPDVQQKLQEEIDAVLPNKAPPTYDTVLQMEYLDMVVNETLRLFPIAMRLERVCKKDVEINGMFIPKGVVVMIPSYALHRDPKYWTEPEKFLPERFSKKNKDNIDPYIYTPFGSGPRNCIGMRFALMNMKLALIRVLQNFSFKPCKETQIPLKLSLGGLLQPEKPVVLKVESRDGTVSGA
Chain of hERG (KCNH2) (Q12809 whole entry): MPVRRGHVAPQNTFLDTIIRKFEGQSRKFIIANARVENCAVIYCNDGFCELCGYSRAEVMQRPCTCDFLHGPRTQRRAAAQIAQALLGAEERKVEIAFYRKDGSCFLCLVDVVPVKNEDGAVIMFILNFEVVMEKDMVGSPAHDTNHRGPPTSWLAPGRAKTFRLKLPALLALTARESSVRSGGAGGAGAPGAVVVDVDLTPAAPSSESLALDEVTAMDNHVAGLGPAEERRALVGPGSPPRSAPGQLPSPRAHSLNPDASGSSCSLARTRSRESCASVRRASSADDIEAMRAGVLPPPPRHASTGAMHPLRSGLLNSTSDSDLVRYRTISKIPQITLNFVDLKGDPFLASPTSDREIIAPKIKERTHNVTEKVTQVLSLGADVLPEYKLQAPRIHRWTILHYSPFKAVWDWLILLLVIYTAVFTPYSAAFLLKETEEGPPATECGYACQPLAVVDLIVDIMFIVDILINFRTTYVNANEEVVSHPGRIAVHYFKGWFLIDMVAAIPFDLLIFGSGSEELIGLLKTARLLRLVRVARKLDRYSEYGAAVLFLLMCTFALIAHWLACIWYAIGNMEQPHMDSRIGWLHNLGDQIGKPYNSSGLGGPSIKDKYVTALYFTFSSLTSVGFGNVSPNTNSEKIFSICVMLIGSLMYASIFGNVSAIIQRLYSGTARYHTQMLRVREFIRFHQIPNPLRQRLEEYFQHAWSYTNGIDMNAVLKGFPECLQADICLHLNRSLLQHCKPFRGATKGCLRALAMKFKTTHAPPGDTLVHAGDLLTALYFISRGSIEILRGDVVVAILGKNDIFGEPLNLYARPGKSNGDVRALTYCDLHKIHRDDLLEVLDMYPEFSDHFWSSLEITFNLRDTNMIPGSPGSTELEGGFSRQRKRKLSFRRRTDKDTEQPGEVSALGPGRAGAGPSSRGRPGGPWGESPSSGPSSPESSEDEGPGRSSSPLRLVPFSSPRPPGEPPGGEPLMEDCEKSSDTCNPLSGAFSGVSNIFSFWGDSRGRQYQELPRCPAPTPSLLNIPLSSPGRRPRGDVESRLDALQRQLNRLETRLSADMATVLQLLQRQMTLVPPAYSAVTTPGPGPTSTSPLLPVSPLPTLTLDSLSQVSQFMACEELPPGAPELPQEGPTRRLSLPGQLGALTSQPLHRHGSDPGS
Chain of Cytochrome P450 2D6 (P10635 whole entry): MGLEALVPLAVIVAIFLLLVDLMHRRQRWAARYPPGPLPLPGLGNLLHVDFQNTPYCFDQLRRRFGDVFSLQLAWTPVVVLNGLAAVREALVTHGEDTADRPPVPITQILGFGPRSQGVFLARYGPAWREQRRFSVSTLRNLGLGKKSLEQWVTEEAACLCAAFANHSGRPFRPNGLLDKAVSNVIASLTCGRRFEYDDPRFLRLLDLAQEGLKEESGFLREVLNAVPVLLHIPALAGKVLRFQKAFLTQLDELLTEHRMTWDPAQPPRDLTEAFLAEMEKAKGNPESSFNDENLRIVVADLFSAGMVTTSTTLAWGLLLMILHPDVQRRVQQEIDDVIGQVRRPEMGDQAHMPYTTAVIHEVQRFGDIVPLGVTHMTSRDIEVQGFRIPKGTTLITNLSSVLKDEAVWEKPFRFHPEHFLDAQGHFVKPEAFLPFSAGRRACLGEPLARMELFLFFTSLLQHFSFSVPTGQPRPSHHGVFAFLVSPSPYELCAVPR
Chain of CYP2D6 (P10635 whole entry): as above
Chain of Cytochrome P450 2C19 (P33261 whole entry): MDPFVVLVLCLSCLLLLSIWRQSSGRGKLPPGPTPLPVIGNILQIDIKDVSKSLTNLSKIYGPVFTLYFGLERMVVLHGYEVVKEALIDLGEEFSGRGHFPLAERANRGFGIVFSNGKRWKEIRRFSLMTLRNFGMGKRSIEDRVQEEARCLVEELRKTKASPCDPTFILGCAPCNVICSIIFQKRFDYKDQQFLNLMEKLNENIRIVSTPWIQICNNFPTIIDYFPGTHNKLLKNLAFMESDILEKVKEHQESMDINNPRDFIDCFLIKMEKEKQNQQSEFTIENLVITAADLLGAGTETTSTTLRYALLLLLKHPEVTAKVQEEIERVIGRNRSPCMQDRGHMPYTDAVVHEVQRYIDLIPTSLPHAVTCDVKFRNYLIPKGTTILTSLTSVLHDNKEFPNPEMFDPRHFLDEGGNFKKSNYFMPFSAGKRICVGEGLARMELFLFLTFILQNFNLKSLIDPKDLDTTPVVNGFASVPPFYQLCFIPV

Which Activity (786-0 [1]) does the source give for `Cc1cccnc1-c1ccc(-c2n[nH]c3ncc(-c4ccc5c(c4)CC[C@@H](N4C6COCC4C6)CC5)cc23)nc1` here?
Its Activity is “inactive”.

What about the AUC(0-t) [2] of the same compound?
The AUC(0-t) was 189 ng·h/mL.

What about the Ratio Ki [3] of the same compound?
Its Ratio Ki is 1400.

What about the inhibition at 0.5 h, 30 µM (CYP2D6) of the same compound?
Its inhibition at 0.5 h, 30 µM is 0%.

What about the inhibition at 0.5 h, 30 µM (CYP2C8) of the same compound?
The inhibition at 0.5 h, 30 µM was 0%.

And the half-life [4]?
The half-life was 72 h.

What about the AUC(0-t) [5] of the same compound?
The AUC(0-t) was 2580 ng·h/mL.

And the IC50 (Cytochrome P450 2D6)?
Its IC50 is 11 µM.

What about the Cmax [6] of the same compound?
Its Cmax is 153 ng/mL.

And the half-life [7]?
The half-life was 70 h.

And the clearance [8]?
Its clearance is 25 mL/min/kg.

And the AUC(0-t) [9]?
Its AUC(0-t) is 180 ng·h/mL.

And the inhibition at 0.5 h, 30 µM (CYP2B6)?
The inhibition at 0.5 h, 30 µM was 12%.

And the AUC(0-t) [10]?
Its AUC(0-t) is 2090 ng·h/mL.

What about the Papp A→B [11] of the same compound?
Its Papp A→B is 1.7 ×10⁻⁶ cm/s.

And the half-life [12]?
The half-life was 54 h.

What about the IC50 (Cytochrome P450 3A4 [13]) of the same compound?
The IC50 was 17 µM.

What about the inhibition at 10 µM (hERG (KCNH2)) of the same compound?
Its inhibition at 10 µM is 56%.

And the half-life [14]?
The half-life was 40 h.

What about the AUC(0-t) [15] of the same compound?
Its AUC(0-t) is 614 ng·h/mL.

And the IC50 (Cytochrome P450 2C19)?
Its IC50 is 17 µM.

What about the AUC(0-t) [16] of the same compound?
The AUC(0-t) was 707 ng·h/mL.

What about the Activity (786-0 [17]) of the same compound?
Its Activity is “Active”.

And the IC50 (Cytochrome P450 3A4 [18])?
The IC50 was 5.6 µM.

What about the clearance [19] of the same compound?
The clearance was 8.83 mL/min/kg.

From ChEMBL document CHEMBL6134930, “Discovery of AB801, a Potent and Selective Inhibitor of AXL Receptor Tyrosine Kinase for Use in Cancer Therapy” (J Med Chem, 2025)
